In US10961202B2, “Bis-benzimidazole compounds and methods of using the same” (THE SCRIPPS RESEARCH INSTITUTE, priority 2017, dated 2021):

tested on: r(CUG)12-MBNL1 complex; assay: Inhibition of the r(CUG)12-MBNL1 complex measured by TR-FRET; assay type: biochemical; details: Table L; 80 nM RNA, 60 nM MBNL1-His6

SMILES | IC50 [µM]
CN(C)CCNCc1ccc2nc(-c3ccc(-c4nc5ccc(CNCCN(C)C)cc5[nH]4)cc3)[nH]c2c1 [Compound 61] | > 200
Nc1ccc2nc(-c3ccc(-c4nc5ccc(Nc6ncccn6)cc5[nH]4)cc3)[nH]c2c1 [Compound 5, 2-(4-(5-amino-1H-benzo[d]imidazol-2-yl)phenyl)-N-(pyrimidin-2-yl)-1H-benzo[d]imidazol-5-amine] | 76
CNCCNC(=O)c1ccc2nc(-c3ccc(-c4nc5ccc(C(=O)NCCNC)cc5[nH]4)cc3)[nH]c2c1 [Compound 28, 2,2′-(1,4-phenylene)bis(N-(2-(methylamino)ethyl)-1H-benzo[d]imidazole-6-carboxamide)] | 12.3
O=[N+]([O-])c1ccc(-c2nc3cc(-c4ccc5[nH]c(-c6ccc([N+](=O)[O-])cc6)nc5c4)ccc3[nH]2)cc1 [Compound 94] | > 200
CC(C)(C)OC(=O)NCCNC(=O)c1ccc2nc(-c3ccc(-c4nc5ccc(C(=O)NCCNC(=O)OC(C)(C)C)cc5[nH]4)cc3)[nH]c2c1 [Compound 50, di-tert-butyl(((2,2′-(1,4-phenylene)bis(1H-benzo[d]imidazole-6,6′-carbonyl))bis(azanediyl))bis(ethane-2,1-diyl))dicarbamate] | > 200
COC(=O)c1ccc2nc(-c3ccc(-c4nc5ccc(C(=O)OC)cc5[nH]4)cc3)[nH]c2c1 [Compound 10, dimethyl 2,2′-(1,4-phenylene)bis(1H-benzo[d]imidazole-6-carboxylate)] | > 200

Results, then the compound that gave them:

IC50 [µM] | SMILES
> 200 | Brc1ccc(-c2nc3cc(-c4ccc5[nH]c(-c6ccc(Br)cc6)nc5c4)ccc3[nH]2)cc1 [Compound 104]
150 | Nc1ccc2nc(-c3ccc(-c4nc5ccc(Nc6ccccn6)cc5[nH]4)cc3)[nH]c2c1 [Compound 21, 2-(4-(5-amino-1H-benzo[d]imidazol-2-yl)phenyl)-N-(pyridin-2-yl)-1H-benzo[d]imidazol-5-amine]
> 200 | NC(=O)c1ccc(-c2nc3cc(-c4ccc5[nH]c(-c6ccc(C(N)=O)cc6)nc5c4)ccc3[nH]2)cc1 [Compound 101]
35 | Nc1ccc2[nH]c(-c3ccc(-c4nc5cc(NC6=NCCN6)ccc5[nH]4)cc3)nc2c1 [Compound 24, 2-(4-(5-amino-1H-benzo[d]imidazol-2-yl)phenyl)-N-(4,5-dihydro-1H-imidazol-2-yl)-1H-benzo[d]imidazol-5-amine]
15 | CN(C)CCNC(=O)c1ccc(-c2nc3cc(-c4ccc5[nH]c(-c6ccc(C#N)cc6)nc5c4)ccc3[nH]2)cc1 [Compound 109]
144 | N=C(NO)c1ccc(-c2nc3cc(-c4ccc5[nH]c(-c6ccc(C(=N)NO)cc6)nc5c4)ccc3[nH]2)cc1 [Compound 98]

same assay, conditions: Table M; 80 nM RNA, 60 nM MBNL1-His6

SMILES | IC50 [µM]
C[C@@H](C(=O)N(C)[C@@H](C)C(=O)N(C)[C@@H](C)C(=O)N(C)[C@@H](C)C(=O)N(CCCn1cc(COCCOCCN(C)C(=O)c2ccc(-c3nc4ccc(-c5ccc6nc(-c7ccc(C(=O)NCCN(C)C)cc7)[nH]c6c5)cc4[nH]3)cc2)nn1)CC(N)=O)N(C)C(=O)CNCCCn1cc(COCCOCCN(C)C(=O)c2ccc(-c3nc4ccc(-c5ccc6nc(-c7ccc(C(=O)NCCN(C)C)cc7)[nH]c6c5)cc4[nH]3)cc2)nn1 [Compound 430] | 7.7
CC(C(=O)N(C)C(C)C(=O)N(C)C(C)C(=O)N(C)C(C)C(=O)N(CCCn1cc(CCCCN(C)CCOc2ccc(-c3nc4cc(-c5ccc6[nH]c(-c7ccc(OCCN(C)C)cc7)nc6c5)ccc4[nH]3)cc2)nn1)CC(N)=O)N(C)C(=O)CNCCCn1cc(CCCCN(C)CCOc2ccc(-c3nc4cc(-c5ccc6[nH]c(-c7ccc(OCCN(C)C)cc7)nc6c5)ccc4[nH]3)cc2)nn1 (stereo not shown) [compound 164] | 1.91
C[C@@H](C(=O)N(C)[C@@H](C)C(=O)N(C)[C@@H](C)C(=O)N(C)[C@@H](C)C(=O)N(C)[C@@H](C)C(=O)N(CCCCN(C)C(=O)c1ccc(-c2nc3cc(-c4ccc5[nH]c(-c6ccc(C(=O)NCCN(C)C)cc6)nc5c4)ccc3[nH]2)cc1)CC(N)=O)N(C)C(=O)c1ccc(-c2nc3cc(-c4ccc5[nH]c(-c6ccc(C(=O)NCCN(C)C)cc6)nc5c4)ccc3[nH]2)cc1 [Compound 417] | 9.24
CN(C)CCNC(=O)c1ccc(-c2nc3cc(-c4ccc5[nH]c(-c6ccc(C(=O)NCCCCCCCCCCNC(=O)c7ccc(-c8nc9cc(-c%10ccc%11[nH]c(-c%12ccc(C(=O)NCCN(C)C)cc%12)nc%11c%10)ccc9[nH]8)cc7)cc6)nc5c4)ccc3[nH]2)cc1 [Compound 424] | 5.82
CN(C)CCNC(=O)c1ccc(-c2nc3cc(-c4ccc5[nH]c(-c6ccc(C(=O)NCCCCCCCCNC(=O)c7ccc(-c8nc9cc(-c%10ccc%11[nH]c(-c%12ccc(C(=O)NCCN(C)C)cc%12)nc%11c%10)ccc9[nH]8)cc7)cc6)nc5c4)ccc3[nH]2)cc1 [Compound 422] | 5.65
CN(C)C/C=C/COc1ccc2nc(-c3ccc(-c4nc5ccc(OC/C=C/CN(C)C)cc5[nH]4)cc3)[nH]c2c1 [Compound 233, (2E,2′E)-4,4′-((2,2′-(1,4-phenylene)bis(1H-benzo[d]imidazole-6,2-diyl))bis(oxy))bis(N,N-dimethylbut-2-en-1-amine)] | 39.5
CN(C)CCCOc1ccc2nc(-c3cnc(-c4nc5ccc(OCCCN(C)C)cc5[nH]4)nc3)[nH]c2c1 [Compound 317] | 21.4
CN(C)CCCOc1ccc2[nH]c(-c3ccc(-c4nc5cc(OCCCN(C)C)ccc5n4C)cc3)nc2c1 [Compound 313] | > 200
CN(C)CCNC(=O)c1ccc(-c2nc3ccc(-c4ccc5nc(-c6ccc(C(=O)NCCOCCOCCOCCOCc7cn(CCCNCC(=O)N8CCCC8C(=O)N8CCC[C@H]8C(=O)N(CCCn8cc(COCCOCCOCCOCCNC(=O)c9ccc(-c%10nc%11ccc(-c%12ccc%13nc(-c%14ccc(C(=O)NCCN(C)C)cc%14)[nH]c%13c%12)cc%11[nH]%10)cc9)nn8)CC(N)=O)nn7)cc6)[nH]c5c4)cc3[nH]2)cc1 (stereo partly shown) [Compound 438] | > 200
NCC(=O)NCC(=O)NCc1cn(CCN2CCN(CCNC(=O)c3ccc4nc(-c5ccc(-c6nc7ccc(C(=O)NCCN8CCCCC8)cc7[nH]6)cc5)[nH]c4c3)CC2)nn1 [Compound 178, N-(2-(4-(2-(4-((2-(2-aminoacetamido)acetamido)methyl)-1H-1,2,3-triazol-1-yl)ethyl)piperazin-1-yl)ethyl)-2-(4-(6-((2-(piperidin-1-yl)ethyl)carbamoyl)-1H-benzo[d]imidazol-2-yl)phenyl)-1H-benzo[d]imidazole-6-carboxamide] | 7.9
CN(C)Cc1ccc(Oc2ccc3nc(-c4ccc(-c5nc6ccc(Oc7ccc(CN(C)C)cc7)cc6[nH]5)cc4)[nH]c3c2)cc1 [Compound 242] | 47.7
CN(C)CCCOc1ccc2nc(-c3ccc(-c4nc5ccc(OCCCN(C)C)cc5n4C)cc3)n(C)c2c1 [Compound 310] | > 200
CN(C)CCCOc1cccc2nc(-c3ccc(-c4nc5cccc(O)c5[nH]4)cc3)[nH]c12 [Compound 216, 2-(4-(7-(3-(dimethylamino)propoxy)-1H-benzo[d]imidazol-2-yl)phenyl)-1H-benzo[d]imidazol-7-ol] | 125
CN(C)CCNC(=O)c1ccc(-c2nc3ccc(-c4ccc5nc(-c6ccc(C(=O)N(C)CCOCCOCc7cn(CCCNCC(=O)N8CCC[C@H]8C(=O)N8CCC[C@H]8C(=O)N8CCC[C@H]8C(=O)N8CCC[C@H]8C(=O)N(CCCn8cc(COCCOCCN(C)C(=O)c9ccc(-c%10nc%11ccc(-c%12ccc%13nc(-c%14ccc(C(=O)NCCN(C)C)cc%14)[nH]c%13c%12)cc%11[nH]%10)cc9)nn8)CC(N)=O)nn7)cc6)[nH]c5c4)cc3[nH]2)cc1 [Compound 432] | 11.6
CN(C)CCNC(=O)c1ccc(-c2nc3ccc(-c4ccc5nc(-c6ccc(C(=O)N7CCCC8C9CCCN(C(=O)c%10ccc(-c%11nc%12ccc(-c%13ccc%14nc(-c%15ccc(C(=O)NCCN(C)C)cc%15)[nH]c%14c%13)cc%12[nH]%11)cc%10)C9CCC87)cc6)[nH]c5c4)cc3[nH]2)cc1 (stereo not shown) [Compound 452] | 3.1
CN(C)CCCSCCOc1ccc2nc(-c3ccc(-c4nc5ccc(OCCSCCCN(C)C)cc5[nH]4)cc3)[nH]c2c1 [Compound 207] | 48.6
CN(C)[C@H]1CC[C@H](Oc2ccc3nc(-c4ccc(-c5nc6ccc(O[C@H]7CC[C@H](N(C)C)CC7)cc6[nH]5)cc4)[nH]c3c2)CC1 [Compound 219] | 18.1
Cc1cc(-c2nc3ccc(OCCCN(C)C)cc3[nH]2)c(C)cc1-c1nc2ccc(OCCCN(C)C)cc2[nH]1 [Compound 271, (3-[[2-(4-[6-[3-(dimethylamino)propoxy]-1H-1,3-benzodiazol-2-yl]-2,5-dimethylphenyl)-1H-1,3-benzodiazol-6-yl]oxy]propyl)dimethylamine] | > 200
CN(C)CC(CN(C)C)Oc1ccc2nc(-c3ccc(-c4nc5ccc(OC(CN(C)C)CN(C)C)cc5[nH]4)cc3)[nH]c2c1 [Compound 184] | > 200

Further lines, results first:

IC50 [µM] | SMILES
30.2 | C[C@H](CN(C)C)NC(=O)c1ccc(-c2nc3cc(-c4ccc5[nH]c(-c6ccc(C(=O)N[C@H](C)CN(C)C)cc6)nc5c4)ccc3[nH]2)cc1 [Compound 388]
> 200 | CN(C)CCCOc1ccc2nc(-c3ccc(-c4nc5ccc(C(=O)O)cc5[nH]4)cc3)[nH]c2c1 [Compound 250, 2-(4-(6-(3-(dimethylamino)propoxy)-1H-benzo[d]imidazol-2-yl)phenyl)-1H-benzo[d]imidazole-6-carboxylic acid]
> 200 | FC(F)(F)CCCOc1ccc2nc(-c3ccc(-c4nc5ccc(OCCCC(F)(F)F)cc5[nH]4)cc3)[nH]c2c1 [Compound 281]
17.4 | CN(C)CCNC(=O)c1ccc(-c2nc3cc(-c4ccc5[nH]c(-c6ccc(OCCN(C)C)cc6)nc5c4)ccc3[nH]2)cc1 [Compound 382]
129 | Oc1ccc2nc(-c3ccc(-c4nc5ccc(OCCN6CCCC6)cc5[nH]4)cc3)[nH]c2c1 [Compound 204]
49.9 | CN(C)CCSc1ccc(-c2nc3cc(-c4ccc5[nH]c(-c6ccc(SCCN(C)C)cc6)nc5c4)ccc3[nH]2)cc1 [Compound 381]
28.8 | [N-]=[N+]=NCCCOc1ccc(-c2nc3cc(-c4ccc5[nH]c(-c6ccc(OCCCN)cc6)nc5c4)ccc3[nH]2)cc1 [Compound 379]
16.7 | NCCCOc1ccc(-c2nc3cc(-c4ccc5[nH]c(-c6ccc(O)cc6)nc5c4)ccc3[nH]2)cc1 [Compound 380]
34.2 | C[C@@H](CN(C)C)NC(=O)c1ccc(-c2nc3cc(-c4ccc5[nH]c(-c6ccc(C(=O)N[C@@H](C)CN(C)C)cc6)nc5c4)ccc3[nH]2)cc1 [Compound 389]
